{"source": "ChEMBL document CHEMBL1201862", "about": "“PubChem BioAssay data set” (2004)", "key": {"Streptococcus [1]": {"system": "Streptococcus", "test": "Luminescence Microorganism-Based Dose Response Follow up to Identify Compounds Cytotoxic to Streptococcus. [Related pubchem assays: 1677 (Project Summary), 1915, 1914, 1902 (Retest at Dose), 1900 (Counter Screen), 1662 (Primary HTS)]", "type": "functional, organism-based"}, "Streptococcus [2]": {"system": "Streptococcus", "test": "Group A Streptococcus viability loss, dose response, counter-screen for streptokinase expression inhibitor project, luminescence, BacTiterGlo (AID 1915)", "type": "functional, organism-based"}, "Streptokinase A": {"biological_target": "T1, Streptokinase A (Streptococcus pyogenes serotype M1, UniProt P10520)", "T1 sequence (P10520 whole entry)": "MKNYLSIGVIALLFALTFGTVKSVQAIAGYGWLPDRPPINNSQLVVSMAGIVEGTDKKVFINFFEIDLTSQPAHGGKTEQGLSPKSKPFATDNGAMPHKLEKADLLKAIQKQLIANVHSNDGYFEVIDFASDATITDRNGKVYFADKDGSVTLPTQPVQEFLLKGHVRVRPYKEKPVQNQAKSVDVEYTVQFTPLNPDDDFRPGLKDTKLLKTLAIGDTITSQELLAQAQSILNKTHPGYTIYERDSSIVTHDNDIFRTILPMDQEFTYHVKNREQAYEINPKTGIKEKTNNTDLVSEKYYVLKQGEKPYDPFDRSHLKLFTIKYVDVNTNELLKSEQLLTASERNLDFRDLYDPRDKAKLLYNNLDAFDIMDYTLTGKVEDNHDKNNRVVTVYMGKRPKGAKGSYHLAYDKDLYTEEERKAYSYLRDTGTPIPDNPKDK", "test": "S. pyogenes streptokinase expression inhibitors, potency, dose response, plasminogen activation absorbance, OD405 (AID 1914);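 further: secreted streptokinase activity via plasminogen activation per viability signal from cell pellet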", "type": "functional, Streptococcus pyogenes M1 GAS"}, "[3]": {"system": "Streptococcus sp. 'group A'", "test": "growth inhibition of control SK(-) GAS strain, dose response, counter-screen for streptokinase expression inhibitor project, luminescence, kanamycin, BacTiterGlo, confirmation (AID 1900)", "type": "functional, organism-based"}, "NS3": {"biological_target": "NS3 (Hepatitis C virus, UniProt A3EZJ3)", "sequence (A3EZJ3 whole entry)": "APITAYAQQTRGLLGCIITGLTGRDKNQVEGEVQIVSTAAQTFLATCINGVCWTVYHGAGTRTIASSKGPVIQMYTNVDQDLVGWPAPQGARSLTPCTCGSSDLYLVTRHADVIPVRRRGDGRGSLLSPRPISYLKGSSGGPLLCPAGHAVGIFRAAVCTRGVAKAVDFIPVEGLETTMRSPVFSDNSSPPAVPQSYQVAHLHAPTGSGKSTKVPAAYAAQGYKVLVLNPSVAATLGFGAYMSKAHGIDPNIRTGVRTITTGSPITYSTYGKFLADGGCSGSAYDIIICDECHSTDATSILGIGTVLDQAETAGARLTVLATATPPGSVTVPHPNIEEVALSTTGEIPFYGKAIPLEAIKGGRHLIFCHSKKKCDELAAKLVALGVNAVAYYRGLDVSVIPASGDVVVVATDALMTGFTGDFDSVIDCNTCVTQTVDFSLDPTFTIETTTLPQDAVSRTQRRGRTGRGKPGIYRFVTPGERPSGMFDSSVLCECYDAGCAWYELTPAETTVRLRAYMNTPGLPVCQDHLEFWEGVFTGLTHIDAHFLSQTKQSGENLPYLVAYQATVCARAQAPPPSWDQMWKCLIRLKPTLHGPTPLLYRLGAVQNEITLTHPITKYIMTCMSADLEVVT", "test": "PubChem AID 2173", "parameters": "species or system Hepacivirus hominis"}, "[4]": {"biological_target": "T2, RNA-binding protein pos-1 (Caenorhabditis elegans, UniProt G5EF15)", "T2 sequence (G5EF15 whole entry)": "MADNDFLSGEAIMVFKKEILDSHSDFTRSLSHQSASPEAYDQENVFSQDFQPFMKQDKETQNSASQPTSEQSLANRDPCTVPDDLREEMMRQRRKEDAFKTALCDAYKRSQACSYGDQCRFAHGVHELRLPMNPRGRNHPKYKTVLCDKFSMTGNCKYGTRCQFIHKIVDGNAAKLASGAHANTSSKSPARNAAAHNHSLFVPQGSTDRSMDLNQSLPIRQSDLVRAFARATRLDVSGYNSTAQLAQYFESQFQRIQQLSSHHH", "test": "inhibitors of POS-1/mex-3 RNA binding, dose response, biochemical, fluorescence polarization (AID 1964);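 further: purified POS-1 fused to maltose binding protein made in E. coli; potency of compounds blocking POS-1 binding to fluorescent RNA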"}, "[5]": {"biological_target": "T3, Zinc finger protein mex-5 (Caenorhabditis elegans, UniProt Q9XUB2)", "T3 sequence (Q9XUB2 whole entry)": "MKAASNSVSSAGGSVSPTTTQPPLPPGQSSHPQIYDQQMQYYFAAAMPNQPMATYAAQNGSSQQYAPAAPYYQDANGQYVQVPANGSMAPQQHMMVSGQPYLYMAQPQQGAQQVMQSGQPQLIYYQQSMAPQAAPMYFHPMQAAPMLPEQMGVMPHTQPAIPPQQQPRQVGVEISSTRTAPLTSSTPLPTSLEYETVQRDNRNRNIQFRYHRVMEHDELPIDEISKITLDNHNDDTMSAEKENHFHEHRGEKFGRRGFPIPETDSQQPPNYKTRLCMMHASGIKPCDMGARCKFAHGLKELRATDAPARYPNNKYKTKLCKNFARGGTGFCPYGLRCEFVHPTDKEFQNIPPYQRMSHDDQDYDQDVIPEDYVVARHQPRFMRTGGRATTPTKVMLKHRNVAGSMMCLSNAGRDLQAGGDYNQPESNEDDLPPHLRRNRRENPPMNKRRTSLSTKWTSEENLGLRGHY", "test": "MEX-5/TCR-2 RNA interaction inhibitors, dose response, biochemical, C. elegans, fluorescence polarization (AID 1960)"}, "[6]": {"test": "luciferase reporter signal reduction – luminescence, H4-C neuroglioblastoma cells, dose response (AID 2458);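 further: H4 neuroglioblastoma cells stably carrying a luciferase reporter gene fusion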", "type": "functional, cell-based"}, "[7]": {"test": "inhibitors of firefly luciferase expression or activity, dose response, H4 neuroglioma cells, luminescence (AID 1990)", "type": "functional, cell-based"}, "[8]": {"test": "inhibitors of SNCA 5'UTR-driven reporter translation, confirmation, H4 neuroglioma cells, luminescence (AID 1988)", "type": "functional, cell-based"}, "cells": {"test": "cells", "type": "functional, cell-based"}, "[9]": {"test": "inhibitors of SNCA 5'UTR-driven translation, confirmation, luminescence, H4 neuroglioblastoma cells, dose confirmation (AID 2454);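 further: H4 neuroglioblastoma cells carrying an alpha-synuclein 5'UTR luciferase reporter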", "type": "functional, cell-based"}}, "note": "The source made the active and inactive calls. For most assays here, no stated cut-off is given here; in the data, actives have a measured EC50 and inactives only a lower limit."}
{"molecule": "O=C(NC(=S)Nc1ccccc1N1CCCC1)c1ccccc1Br", "values": [{"measurement": "EC50", "setting": "Streptococcus [1]", "value": "> 500 µM (not active)"}, {"measurement": "EC50", "setting": "Streptococcus [2]", "value": "> 150 µM (not active)"}, {"measurement": "EC50", "setting": "Streptokinase A", "value": "6.61 µM (active)"}, {"measurement": "EC50", "setting": "[3]", "value": "32.3 µM (active)"}]}
{"molecule": "COc1cccc(C2C(C#N)=C(N)OC3=C2C(=O)CC(c2ccco2)C3)c1OCc1ccc(F)cc1", "note": "(configuration not stated)", "values": [{"measurement": "IC50", "setting": "NS3", "value": "33.5 µM (not active)"}, {"measurement": "EC50", "setting": "[4]", "value": "> 300 µM (not active)"}, {"measurement": "EC50", "setting": "[5]", "value": "> 300 µM (not active)"}]}
{"molecule": "COc1ccc(C2NCc3ccc4c(c3-n3cccc32)OCO4)cc1O", "note": "(configuration not stated)", "values": [{"measurement": "EC50", "setting": "[6]", "value": "2.6 µM (active)"}, {"measurement": "EC50", "setting": "[7]", "value": "< 0.1 µM (active)"}, {"measurement": "EC50", "setting": "[8]", "value": "< 0.1 µM (active)"}, {"measurement": "EC50", "setting": "cells", "value": "5.44 µM (active)"}, {"measurement": "EC50", "setting": "[9]", "value": "> 12 µM (not active)"}]}
